Laboratory results from US5514773A, “Depsipeptide derivatives, production thereof and use thereof” (Fujisawa Pharmaceutical Co., Ltd., priority 1992, dated 1996).

Tests used:
Format in all cases: in vivo
[1] = tested on: Nippostrongylus brasilienses; test: Test 1: reduction of Nippostrongylus brasilienses in infected rats, oral administration; details: Wistar rats, oral on 7th, 8th and 9th day after infection, parasites in small intestines counted on 11th day
Experimental: (§1) The effect of parasiticides was examined with the rats which was infected by nematodes which are parasitic on rats, Nippostrongylus brasilienses.
(§2) Wistar strain rats (female 6 weeks old, 120-130 g weight) were […] by infecting them and giving them subcutaneous injections of 3000 infective larvae per rat.
(§3) Test compound of 50 mg was dissolved in 0.25 ml dimethylsulfoxide, 0.5% methylcellulose solution was added, and liquid volume was adjusted to be prescribed volume of 100, 10, 5, 2.5, 1.25, 1.0, 0.63, 0.32 mg/kg to utilize. After they were infected, on each 7th, 8th, and 9th day, the test compound was administered orally with above concentration. On the 11th day, the rat was dissected and the numbers of parasites in the small intestines were measured.
The given measurement was based to calculate the reduction rate from the percentage of the numbers of the parasites of unadministered rats (control). The result of it is shown in the […]

[2] = tested on: Nippostrongylus brasilienses; test: Test 2: reduction of Nippostrongylus brasilienses in infected rats, subcutaneous administration; details: Wistar rats, otherwise as Test 1
Experimental: as §1, §2, §3
The given measurement was based to calculate the reduction rate from the percentage of the numbers of the parasites of unadministered rats (control). The result of it is shown in the
The reduction rate was calculated in a similar manner as Test 1 except when the test compound was subcutaneously administered to the rats instead of oral administration as in Test 1.

[3] = tested on: Strongyloides venezuelensis; test: Test 3: Strongyloides venezuelensis in infected Mongolian gerbils, eggs in feces and worms recovered; details: oral once 20 mg/kg, group mean
Excerpt: For 1 rat, the 5000 infective larvae of Strongyloides venezuelensis were infected percutaneously to one group (2 rats) of 8 weeks old Mongolian gerbils. On the 10th day after they were infected, the suspended test compound was orally administered once with the amount of established administration. The effect was judged according to the amount of the eggs in the feces or the numbers of worms in the intestinal tract. The measurement of the numbers of the eggs were taken from O ring method, and the numbers of the eggs (EPG) in 1 g of feces were counted on the day before, on the day, and on the 1st, 2nd, 3rd, and 4th day after the administration. The numbers of the parasites were measured by dissecting Mongolian gerbils the 4th day after the administration (on the 14th day after infection). The method of measurement was followed by releasing the parasites, which live in the small intestines, into saline solution over night, and the released parasites were set to be as numbers of worms recovered.

How did the “Minimum Amount of Administration indicated by more than 95% of Reduction Rate” value [1] turn out when `CC(C)C[C@H]1C(=O)O[C@H](Cc2ccccc2)C(=O)N(C)[C@@H](CC(C)C)C(=O)O[C@H](C)C(=O)N(C)[C@@H](CC(C)C)C(=O)O[C@H](Cc2ccccc2)C(=O)N(C)[C@@H](CC(C)C)C(=O)O[C@H](C)C(=O)N1C` [PF1022] was run?
The value was 10 mg/kg.

What about the “Minimum Amount of Administration indicated by more than 95% of Reduction Rate” value [2] of the same molecule?
Its value is > 100 mg/kg.

And the “Change in Numbers of Parasites' Number of Eggs in Feces (EPG/100)” value (“Change in Numbers” below) ([3]; day 0 (starting day of administration))?
Its value is 1615 EPG/100.

What about the “Change in Numbers” value ([3]; day 1 after administration) of the same molecule?
The value was 581 EPG/100.

What about the “Change in Numbers” value ([3]; day 2 after administration) of the same molecule?
The value was 1563 EPG/100.

And the “Change in Numbers” value ([3]; day 3 after administration)?
Its value is 935 EPG/100.

And the “Change in Numbers” value ([3]; day 4 after administration)?
The value was 1005 EPG/100.

What about the “Change in Numbers” value ([3]; day -2 (before administration)) of the same molecule?
Its value is 332 EPG/100.

And the “Numbers of the Worms recovered” value ([3]; dissected 4th day after administration)?
Its value is 3088.
